Results on one compound are retold here after PMC5949348, “The Metabolism of Separase Inhibitor Sepin-1 in Human, Mouse, and Rat Liver Microsomes” (Frontiers in Pharmacology, 2018).

Values joined by “and” are separate entries in the source; they are usually repeats but may differ in a detail not shown here. Identical values can stand only once. Like-named read-outs stand apart in the source and are kept apart here. A value given as a limit tells only on which side of the number the result lay.

One series has as its system breast cancer xenografts. More on the design: method as in Zhang et al., 2014. The following applies: mice; ref Zhang et al., 2014; cited from earlier work.
Series [1] can be described thus: Metabolism of sepin-1 in human liver microsomes. The settings on record: 30 μM sepin-1, NADPH 1.0 mM, 30 min. The class given is in vitro ADME. On the procedure: Incubations were conducted in 1× phosphate-buffered saline (1× PBS, pH 7.4), containing 30 μM sepin-1, 1.0 mg HLM, MLM, RLM, or 2 pmol of each cDNA-expressed P450 enzyme (control, CYP1A2, 2A6, 2B6, 2C8, 2C9, 2C19, 2D6, 2E1, and CYP3A4) in a final volume of 190 μl. After 5 min of pre-incubation at 37°C, the reaction was initiated by adding 10 μl of 20 mM NADPH (final concentration 1.0 mM) and continued for 30 min, with shaking at 37°C. Incubations lacking NADPH served as controls. Reactions were terminated with 200 μl of ice-cold methanol, followed by vortexing for 30 s and centrifuging at 15,000 × g for 15 min. Each supernatant was transferred to an auto sampler vial, and 5.0 μl was injected on to UHPLC coupled with a QTOFMS system for metabolite analysis. Incubations were conducted in quadruplicate for HLM, in triplicate for MLM and RLM, and in duplicate for cDNA-expressed P450 enzymes.
The separation of sepin-1 and its metabolites was achieved using a 1260 Infinity Binary LC System (Agilent Technologies, Santa Clara, CA, United States) equipped with 100 mm × 2.1 mm (Agilent XDB C18) column. The column temperature was maintained at 40°C. The flow rate was 0.3 ml/min, with a gradient ranging from 2% to 98% aqueous acetonitrile containing 0.1% formic acid in a 15-min run. QTOFMS was operated in a positive mode with electrospray ionization. Ultra-high pure nitrogen was applied as the drying gas (12 l/min) and the collision gas. The drying gas temperature was set at 325°C, and the nebulizer pressure was kept at 35 psi. The capillary voltages were set at 3.5 kV. […]
Mass chromatograms and mass spectra were acquired by MassHunter Workstation Data Acquisition Software (Agilent, Santa Clara, CA, United States) in centroid and profile formats from m/z 100 to 1000. […] For the QQQMS data, QQQ Quantitative Analysis Software (Agilent, Santa Clara, CA, United States) was used for metabolite analysis. […] Statistical differences between two groups were determined by Student’s t-test.

The target in a further series is T1, CYP2C9 (Homo sapiens, UniProt P11712).
T1 construct: purchased XenoTech
Put plainly: Inhibition of sepin-1 on CYP2C9. The class given is in vitro ADME. On the procedure:
(§1) Incubations were performed in 1× PBS (pH 7.4), containing 0, 0.156, 0.312, 0.625, 1.25, 2.5, 5, 10, 20, or 40 μM sepin-1, 2 pmol of each cDNA-expressed P450 enzymes, and corresponding substrates: CYP1A2 (phenacetin, 40 μM, 20 min incubation), 2B6 (efavirenz, 20 μM, 30 min), 2C8 (paclitaxel, 10 μM, 30 min), 2C9 (diclofenac, 5 μM, 15 min), 2C19 [(S)-mephenytoin, 40 μM, 20 min], 2D6 (dextromethorphan, 5 μM, 15 min), and CYP3A4 (midazolam, 3 μM, 10 min) in a final volume of 190 μl. After 5 min of pre-incubation at 37°C, the reaction was initiated by adding 10 μl of 20 mM NADPH (final concentration 1.0 mM) and continued for a specific time as presented above with gentle shaking. Incubations without sepin-1 were used as controls. Reactions were terminated by the addition of 200 μl of ice-cold methanol, vortexing for 30 s, and centrifuging at 15,000 × g for 15 min. Each supernatant was transferred to an auto sampler vial and 5.0 μl was injected on to UHPLC coupled with a QQQMS system for the specific metabolite analysis. A MRM method was used. Incubations were conducted in duplicate. Positive controls were performed by using a known specific inhibitor for each of the isoform assays (Supplementary Table S1). […]

A further series deals with T2, CYP3A4 (Homo sapiens, UniProt P08684).
T2 construct: purchased XenoTech
Put plainly: Inhibition of sepin-1 on CYP3A4. It is filed as in vitro ADME. On the procedure: as §1

The target of the next series is T3, CYP1A2 (Homo sapiens, UniProt P05177).
T3 construct: purchased XenoTech
T3 sequence (P05177 1-516): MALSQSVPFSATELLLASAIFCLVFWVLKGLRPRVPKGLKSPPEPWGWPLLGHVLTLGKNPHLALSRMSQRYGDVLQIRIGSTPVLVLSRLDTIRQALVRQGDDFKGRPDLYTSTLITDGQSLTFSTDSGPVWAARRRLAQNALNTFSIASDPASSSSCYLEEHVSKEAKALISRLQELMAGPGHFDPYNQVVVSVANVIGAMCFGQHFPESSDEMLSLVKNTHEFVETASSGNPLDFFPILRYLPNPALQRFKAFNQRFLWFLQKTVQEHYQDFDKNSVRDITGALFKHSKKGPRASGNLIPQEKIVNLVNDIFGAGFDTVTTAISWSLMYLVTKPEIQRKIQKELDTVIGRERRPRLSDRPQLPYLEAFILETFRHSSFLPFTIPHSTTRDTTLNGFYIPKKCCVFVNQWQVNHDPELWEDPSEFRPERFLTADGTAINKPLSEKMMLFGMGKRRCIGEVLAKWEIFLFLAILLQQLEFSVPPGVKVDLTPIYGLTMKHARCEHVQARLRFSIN
The series can be described thus: Inhibition of sepin-1 on CYP1A2. The class given is in vitro ADME. On the procedure:
as §1

T2 sequence (P08684 whole entry): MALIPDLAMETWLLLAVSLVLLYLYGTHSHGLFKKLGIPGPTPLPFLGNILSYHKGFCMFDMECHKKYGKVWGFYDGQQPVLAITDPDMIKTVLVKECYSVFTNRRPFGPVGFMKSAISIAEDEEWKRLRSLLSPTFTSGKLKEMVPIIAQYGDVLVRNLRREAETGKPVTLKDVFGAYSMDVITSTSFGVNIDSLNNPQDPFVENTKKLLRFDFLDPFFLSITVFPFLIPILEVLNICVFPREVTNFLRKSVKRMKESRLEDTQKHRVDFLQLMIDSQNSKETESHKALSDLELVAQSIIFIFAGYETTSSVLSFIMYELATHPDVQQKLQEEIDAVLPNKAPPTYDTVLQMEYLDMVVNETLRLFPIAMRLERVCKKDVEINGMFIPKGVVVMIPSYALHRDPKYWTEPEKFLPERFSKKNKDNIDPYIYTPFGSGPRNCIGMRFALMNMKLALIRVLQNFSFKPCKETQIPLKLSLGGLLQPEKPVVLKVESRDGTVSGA
T1 sequence (P11712 whole entry): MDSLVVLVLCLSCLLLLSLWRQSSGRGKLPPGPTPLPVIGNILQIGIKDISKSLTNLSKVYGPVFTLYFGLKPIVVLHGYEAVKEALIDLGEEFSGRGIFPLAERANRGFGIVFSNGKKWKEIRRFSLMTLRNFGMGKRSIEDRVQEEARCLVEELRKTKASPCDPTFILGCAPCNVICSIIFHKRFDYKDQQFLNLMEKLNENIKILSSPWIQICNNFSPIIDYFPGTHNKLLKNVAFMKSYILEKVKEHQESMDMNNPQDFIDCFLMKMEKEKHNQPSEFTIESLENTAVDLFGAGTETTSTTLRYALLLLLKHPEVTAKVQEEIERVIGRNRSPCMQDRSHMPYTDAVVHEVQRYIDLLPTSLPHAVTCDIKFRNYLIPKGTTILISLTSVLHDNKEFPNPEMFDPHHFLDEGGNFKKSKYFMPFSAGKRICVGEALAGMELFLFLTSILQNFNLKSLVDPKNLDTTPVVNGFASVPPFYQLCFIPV

Consider `CC1(C)[N+]([O-])=c2ccc([N+](=O)[O-])cc2=[N+]1[O-]` [Sepin-1, 2,2-dimethyl-5-nitro-2H-benzimidazole-1,3-dioxide], for which the “Inhibition of breast cancer xenograft growth” value in the series with breast cancer xenografts is listed as “inhibits the growth of breast cancer xenografts in mice”. Moreover, the “Metabolism of parent in HLM (in words)” value in series [1] is on record as “metabolized rapidly”. The “Inhibition potency class on CYP2C9” value at CYP2C9 (FDA classification bands) is recorded as “weak inhibition”. For the same compound, the IC50 is > 10 µM and 21.3 µM on CYP2C9 (substrate diclofenac 5 μM, 15 min, metabolite 4-O-diclofenac, co-incubation); 1 to 10 µM at CYP3A4 (FDA classification bands, read-out: Inhibition potency class on CYP3A4); < 10 µM and 8.7 µM at CYP3A4 (substrate midazolam 3 μM, 10 min, metabolite 1-O-midazolam, co-incubation, read-out: IC50 on CYP3A4); 1 to 10 µM on CYP1A2 (FDA classification bands, read-out: Inhibition potency class on CYP1A2); < 10 µM and 8.1 µM on CYP1A2 (substrate phenacetin 40 μM, 20 min, metabolite acetaminophen, co-incubation, read-out: IC50 on CYP1A2).
